# Source: patent US8937078B2, “Quinazolinones as prolyl hydroxylase inhibitors” (Janssen Pharmaceutica NV, priority 2009, dated 2015)
# Assays:
# Hep-3B cells = assay: Cellular assay: erythropoietin secretion in Hep-3B cells; format: cell-based, human; details: Homo sapiens, Hep3B, 100 μM compound, 24 hours, percent of EPO secretion relative to assay control compound 7-[(4-Chloro-phenyl)-(5-methyl-isoxazol-3-ylamino)-methyl]-quinolin-8-ol, read-out: Cellular % EPO Stimulation
# Protocol: Hep-3B cells (ATCC, Manassas, Va.) were plated in 96-well plates at 20,000 cells per well in 100 μl of DMEM containing 10% fetal bovine serum, 1% non-essential amino acids, 50 IU/mL of penicillin and 50 μg/mL of streptomycin (all cell culture reagents from Invitrogen, Carlsbad, Calif.). Twenty-four hours after plating, compounds were added and incubated for an additional 24 hours. All compounds were tested under saturating conditions with final compound concentrations at 100 μM. Fifty microliters of the supernatant was then transferred to a human Hypoxia assay kit (Meso-Scale Discovery, Gaithersburg, Md.). Erythropoietin in the supernatant was detected according to the manufacturer's instructions as follows. EPO detection plates were blocked with 3% BSA in PBS overnight and 50 μl of the supernatant was incubated at room temperature in an orbital shaker for 2 h. Twenty-five microliters of 0.5 μg/ml anti-EPO detection antibody was added for 2 hours at room temperature in an orbital shaker. After 3 washes in PBS, 150 μl of 1× read buffer is added and the plate is then read on the MSD SECTOR instrument.
# human PHD2 (PHD2181-417) = target: T1, human PHD2 (PHD2181-417) (Homo sapiens, UniProt Q9GZT9); assay: PHD enzymatic assay ([14C]-succinic acid production); format: biochemical; details: PHD2181-417, HIF-1α peptide 10 μM, average of results; read-out: Enzyme pIC50 (converted)
# T1 construct: Smt (SUMO) tag (cleaved yes); made in house; host or cells: E. coli BL21 (pBAD vector)
# T1 sequence (Q9GZT9 181-417): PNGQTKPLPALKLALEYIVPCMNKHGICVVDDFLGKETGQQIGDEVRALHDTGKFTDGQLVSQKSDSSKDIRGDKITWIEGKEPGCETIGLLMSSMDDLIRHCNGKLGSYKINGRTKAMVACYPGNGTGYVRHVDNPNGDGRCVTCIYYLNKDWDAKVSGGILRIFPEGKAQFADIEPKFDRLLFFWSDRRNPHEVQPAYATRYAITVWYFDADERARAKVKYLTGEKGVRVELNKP
# Protocol: Protein production was achieved by expression in BL21 cells grown in Terrific Broth containing 100 μg/ml ampicillin. Cell cultures were inoculated at 37° C. and grown to an OD600 of 0.8. Cultures were induced with 0.1% arabinose and grown overnight at 20° C. with continuous shaking at 225 rpm. Cells were then harvested by centrifugation and stored at −80° C. Cell pellets were suspended in Buffer A (50 mM Tris-HCl pH 7.2, 100 mM NaCl, 100 mM L-arginine, 1 mM TCEP, 0.05% (w/v) NP-40, 50 mM imidazole) followed by the addition of lysozyme and benzonase. Cells were lysed by sonication and the lysate was cleared by centrifugation (15,000 rpm, 90 min, 4° C.). The protein was purified by nickel affinity chromatography using a HisTrap Crude FF column (GE Healthcare). Samples were eluted in Buffer A with a 50-200 mM imidazole gradient. […] The flow-through was then dialyzed into 50 mM MES pH 6.0, 1 mM TCEP, 5 mM NaCl for ion exchange chromatography on a HiTrap SP Cation Exchange column (GE Healthcare). […] Fractions were pooled for further purification by size exclusion chromatography over a Superdex 75 Size Exclusion Column (GE Healthcare). Final protein was concentrated to 4 mg/ml and dialyzed in 10 mM PIPES pH 7.0, 100 mM NaCl, 0.5 mM TCEP.
# (10 μM, California Peptide Research Inc., Napa, Calif.), and [5-^14C]-2-oxoglutaric acid (50 mCi/mmol, Moravek Chemicals, Brea, Calif.) in reaction buffer (40 mM Tris-HCl, pH 7.5, 0.4 mg/ml catalase, 0.5 mM DTT, 1 mM ascorbate) for 10 minutes. The reaction was stopped by addition of 50 μl of 70 mM H3PO4 and 50 μl of 500 mM NaH2PO4, pH3.2. Detection of [^14C]-succinic acid was achieved by separating from [5-^14C]-2-oxoglutaric acid by incubating the reaction mixture with 100 μl of 0.16 M DNP prepared in 30% perchloric acid. Next, 50 μl of unlabeled 20 mM 2-oxoglutaric acid/20 mM succinic acid, serving as carrier for the radioactivity, was added to the mixture, and was allowed to proceed for 30 minutes at room temperature. The reaction was then incubated with 50 μl of 1 M 2-oxoglutaric acid for 30 additional minutes at room temperature to precipitate the excess DNP. The reaction was then centrifuged at 2800×g for 10 minutes at room temperature to separate [^14C]-succinic acid in the supernatant from the precipitated [^14C]-dinitrophenylhydrazone. Fractions of the supernatant (400 μl) were counted using a beta counter (Beckman Coulter, Fullerton, Calif.).
IC50 (human PHD2 (PHD2181-417)) [nM],SMILES,Emax at 100 µM (Hep-3B cells) [%]
39.8,"O=C(O)c1cnn(-c2nc3cc(F)c(Oc4ccc5ccccc5c4)cc3c(=O)[nH]2)c1 [Example 52, 1-[7-Fluoro-6-(naphthalen-2-yloxy)-4-oxo-3,4-dihydro-quinazolin-2-yl]-1H-pyrazole-4-carboxylic acid]",76
25.1,"O=C(O)c1cnn(-c2nc3cc(Cl)c(Cl)cc3c(=O)[nH]2)c1 [Example 3, 1-(6,7-Dichloro-4-oxo-3,4-dihydro-quinazolin-2-yl)-1H-pyrazole-4-carboxylic acid]",37
31.6,"O=C(O)c1cnn(-c2nc3cc(F)c(Oc4ccc5c(c4)CCC5)cc3c(=O)[nH]2)c1 [Example 58, 1-[7-Fluoro-6-(indan-5-yloxy)-4-oxo-3,4-dihydro-quinazolin-2-yl]-1H-pyrazole-4-carboxylic acid]",62
50.1,"N#Cc1ccccc1CNc1ccc2nc(-n3cc(C(=O)O)cn3)[nH]c(=O)c2c1 [Example 177, 1-[6-(2-Cyano-benzylamino)-4-oxo-3,4-dihydro-quinazolin-2-yl]-1H-pyrazole-4-carboxylic acid]",13
158,"CC(C)(C)c1cccc2c(=O)[nH]c(-n3cc(C(=O)O)cn3)nc12 [Example 115, 1-(8-tert-Butyl-4-oxo-3,4-dihydro-quinazolin-2-yl)-1H-pyrazole-4-carboxylic acid]",27
100,"O=C(O)c1cnn(-c2nc3cc(S(=O)(=O)c4ccccc4Cl)ccc3c(=O)[nH]2)c1 [Example 83, 1-[7-(2-Chloro-benzenesulfonyl)-4-oxo-3,4-dihydro-quinazolin-2-yl]-1H-pyrazole-4-carboxylic acid]",11
158,"O=C(O)c1cnn(-c2nc3cc(F)c(C4CCCCC4)cc3c(=O)[nH]2)c1 [Example 110, 1-(6-Cyclohexyl-7-fluoro-4-oxo-3,4-dihydro-quinazolin-2-yl)-1H-pyrazole-4-carboxylic acid]",47
25.1,"O=C(O)c1cnn(-c2nc3ccc(Oc4cccc(C(F)(F)F)c4F)cc3c(=O)[nH]2)c1 [Example 96, 1-[6-(2-fluoro-3-trifluoromethyl-phenoxy)-4-oxo-3,4-dihydro-quinazolin-2-yl]-1H-pyrazole-4-carboxylic acid]",51
126,"O=C(O)c1cnn(-c2nc3cc(Cl)cc(Cl)c3c(=O)[nH]2)c1 [Example 132, 1-(5,7-Dichloro-4-oxo-3,4-dihydro-quinazolin-2-yl)-1H-pyrazole-4-carboxylic acid]",16
25.1,"NC(=O)c1cccc(CNc2ccc3nc(-n4cc(C(=O)O)cn4)[nH]c(=O)c3c2)c1 [Example 179, 1-[6-(3-Carbamoyl-benzylamino)-4-oxo-3,4-dihydro-quinazolin-2-yl]-1H-pyrazole-4-carboxylic acid]",12
31.6,"O=C(O)c1cnn(-c2nc3ccc(Oc4cccc(Cl)c4Cl)cc3c(=O)[nH]2)c1 [Example 60, 1-[6-(2,3-dichloro-phenoxy)-4-oxo-3,4-dihydro-quinazolin-2-yl]-1H-pyrazole-4-carboxylic acid]",70
39.8,"COc1cc2nc(-n3cc(C(=O)O)cn3)[nH]c(=O)c2cc1Oc1ccccc1 [Example 62, 1-(7-Methoxy-4-oxo-6-phenoxy-3,4-dihydro-quinazolin-2-yl)-1H-pyrazole-4-carboxylic acid]",7
158,"O=C(O)c1cnn(-c2nc3ccc4[nH]ccc4c3c(=O)[nH]2)c1 [Example 23, 1-(1-Oxo-2,7-dihydro-1H-pyrrolo[3,2-f]quinazolin-3-yl)-1H-pyrazole-4-carboxylic acid]",33
31.6,"O=C(O)c1cnn(-c2nc3ccc(Oc4ccccc4F)cc3c(=O)[nH]2)c1 [Example 33, 1-[6-(2-Fluoro-phenoxy)-4-oxo-3,4-dihydro-quinazolin-2-yl]-1H-pyrazole-4-carboxylic acid]",56
63.1,"O=C(O)c1cnn(-c2nc3cc(F)cc(F)c3c(=O)[nH]2)c1 [Example 131, 1-(5,7-Difluoro-4-oxo-3,4-dihydro-quinazolin-2-yl)-1H-pyrazole-4-carboxylic acid]",21
20,"O=C(O)c1cnn(-c2nc3ccc(Oc4c(Cl)cccc4Cl)cc3c(=O)[nH]2)c1 [Example 38, 1-[6-(2,6-Dichloro-phenoxy)-4-oxo-3,4-dihydro-quinazolin-2-yl]-1H-pyrazole-4-carboxylic acid]",91
25.1,"O=C(O)c1cnn(-c2nc3ccc(Oc4ccc(F)cc4)cc3c(=O)[nH]2)c1 [Example 32, 1-[6-(4-Fluoro-phenoxy)-4-oxo-3,4-dihydro-quinazolin-2-yl]-1H-pyrazole-4-carboxylic acid]",68
63.1,"O=C(O)c1cnn(-c2nc3cc(Oc4ccccc4)ccc3c(=O)[nH]2)c1 [Example 66, 1-(4-Oxo-7-phenoxy-3,4-dihydro-quinazolin-2-yl)-1H-pyrazole-4-carboxylic acid]",41
31.6,"O=C(O)c1cnn(-c2nc3cc(Cl)c(OC(F)(F)F)cc3c(=O)[nH]2)c1 [Example 22, 1-(7-Chloro-4-oxo-6-trifluoromethoxy-3,4-dihydro-quinazolin-2-yl)-1H-pyrazole-4-carboxylic acid]",61
25.1,"O=C(O)c1cnn(-c2nc3ccc(C4CCCCC4)cc3c(=O)[nH]2)c1 [Example 21, 1-(6-Cyclohexyl-4-oxo-3,4-dihydro-quinazolin-2-yl)-1H-pyrazole-4-carboxylic acid]",84
63.1,"O=C(O)c1cnn(-c2nc3ccc(Br)cc3c(=O)[nH]2)c1 [Example 13, 1-(6-Bromo-4-oxo-3,4-dihydro-quinazolin-2-yl)-1H-pyrazole-4-carboxylic acid]",35
20,"O=C(O)c1cnn(-c2nc3ccc(-c4ccc(Cl)cc4)cc3c(=O)[nH]2)c1 [Example 194, 1-[6-(4-Chloro-phenyl)-4-oxo-3,4-dihydro-quinazolin-2-yl]-1H-pyrazole-4-carboxylic acid]",62
31.6,"O=C(O)c1cnn(-c2nc3cc(F)c(Oc4c(Cl)cccc4Cl)cc3c(=O)[nH]2)c1 [Example 50, 1-[6-(2,6-Dichloro-phenoxy)-7-fluoro-4-oxo-3,4-dihydro-quinazolin-2-yl]-1H-pyrazole-4-carboxylic acid]",67
25.1,"O=C(O)c1cnn(-c2nc3ccc(NS(=O)(=O)c4ccccc4)cc3c(=O)[nH]2)c1 [Example 169, 1-(6-Benzenesulfonylamino-4-oxo-3,4-dihydro-quinazolin-2-yl)-1H-pyrazole-4-carboxylic acid]",34
31.6,"O=C(O)c1cnn(-c2nc3cc(F)c(Br)cc3c(=O)[nH]2)c1 [Example 127, 1-(6-Bromo-7-fluoro-4-oxo-3,4-dihydro-quinazolin-2-yl)-1H-pyrazole-4-carboxylic acid]",9
